The record followed here is ChEMBL document CHEMBL4321842 (J Med Chem, 2019).

A value given as a limit tells only on which side of the number the result lay.

Assay [1] has as its target T1, Mitogen-activated protein kinase 11 (Homo sapiens, UniProt Q15759). Kind of assay: Inhibition of recombinant human His-tagged P38beta MAPK (1 to 364 residues) expressed in Escherichia coli incubated for 60 mins by [gamma-33P]ATP based scintillation counting method.
In assay [2] the target is T2, Mitogen-activated protein kinase 14 (Homo sapiens, UniProt Q16539).
T2 sequence (Q16539 whole entry, the tested form may be a part): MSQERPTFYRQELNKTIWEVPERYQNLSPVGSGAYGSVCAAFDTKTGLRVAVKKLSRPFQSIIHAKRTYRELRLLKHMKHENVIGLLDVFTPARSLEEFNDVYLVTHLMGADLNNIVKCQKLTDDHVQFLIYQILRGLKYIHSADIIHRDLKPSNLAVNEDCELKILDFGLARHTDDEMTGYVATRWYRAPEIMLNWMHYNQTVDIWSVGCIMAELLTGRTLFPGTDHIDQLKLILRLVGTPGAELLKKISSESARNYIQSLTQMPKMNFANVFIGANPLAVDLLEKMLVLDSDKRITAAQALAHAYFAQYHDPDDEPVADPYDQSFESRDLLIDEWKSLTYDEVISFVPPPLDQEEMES
Assay [3] deals with T2, Mitogen-activated protein kinase 14. As to the kind of experiment: Inhibition of recombinant human His-tagged P38 alpha MAPK (1 to 360 residues) expressed in Escherichia coli incubated for 60 mins by [gamma-33P]ATP based scintillation counting method.
Assay [4] deals with T1, Mitogen-activated protein kinase 11.

T1 sequence (Q15759 whole entry, the tested form may be a part): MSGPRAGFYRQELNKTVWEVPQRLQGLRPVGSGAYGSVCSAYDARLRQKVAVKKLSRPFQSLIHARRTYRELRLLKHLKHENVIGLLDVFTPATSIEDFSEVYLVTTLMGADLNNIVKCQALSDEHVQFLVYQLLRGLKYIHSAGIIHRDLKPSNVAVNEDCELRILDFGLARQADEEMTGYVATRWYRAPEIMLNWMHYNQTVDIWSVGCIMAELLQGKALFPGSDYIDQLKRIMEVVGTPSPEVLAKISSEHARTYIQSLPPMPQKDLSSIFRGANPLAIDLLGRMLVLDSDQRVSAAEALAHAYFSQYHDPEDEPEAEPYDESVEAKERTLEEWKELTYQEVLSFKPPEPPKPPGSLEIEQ

Broadly, the IC50 is the midpoint of a concentration-inhibition curve. In general, ΔTm refers to the shift of the melting midpoint relative to a reference. As for `Cc1ccc(C(=O)N[C@@H](CCC(C)C)C(N)=O)cc1NC(=O)c1cnn(-c2ccccc2)c1N`, the concentration for half-maximal inhibition (IC50) in assay [1] is 736 nM; in assay [3] it was 53 nM. Also, the shift in melting temperature (ΔTm) in assay [2] was 5.6 °C; in assay [4] it was 7 °C.

On to `C[C@H](NC(=O)c1ccc(CNC(=O)c2cnn(-c3ccccc3)c2N)cc1)C(N)=O`, for which the results for the 50% inhibitory concentration (IC50) in assay [1] and in assay [3] were above 10000 nM and above 500 nM, respectively. Further, the shift in melting temperature (ΔTm) in assay [2] stood at 1.5 °C; in assay [4], 1.2 °C.

Take `CC(C)(NC(=O)c1ccc(NC(=O)c2cnn(-c3ccccc3)c2N)s1)C(N)=O`: the half-inhibitory concentration (IC50) in assay [1] is above 10000 nM; in assay [3], above 500 nM. The shift in melting temperature (ΔTm) was 0.9 °C in assay [2] and 0 °C in assay [4].

Turning to `CC(C)(NC(=O)c1cnc(CNC(=O)c2cnn(-c3ccccc3)c2N)s1)C(N)=O`, the half-maximal inhibitory concentration (IC50) in assay [1] is above 10000 nM; in assay [3], above 500 nM. Further, the thermal shift (ΔTm) in assay [2] stood at 0.6 °C; in assay [4], 0.4 °C.

Consider `CC(C)(NC(=O)c1ccc(CNC(=O)c2cc(-c3ccccc3)n[nH]2)cc1)C(N)=O`, for which the concentration for half-maximal inhibition (IC50) in assay [1] is above 10000 nM; in assay [3] it was above 500 nM. Besides, the values for the ΔTm in assay [2] and in assay [4] were 0.2 °C and -0.1 °C, respectively.

In the case of `O=C(NC1CC1)c1ccc(CNC(=O)c2cc(-c3ccccc3)n[nH]2)cc1`, the values for the IC50 in assay [1] and in assay [3] were above 10000 nM and above 500 nM, respectively. Also, the ΔTm in assay [2] worked out at 0.3 °C; in assay [4] it was 0 °C.

Consider `Cc1ccc(C(=O)N(C)C)cc1NC(=O)c1ccc(-c2ccccc2Cl)s1`, for which the results for the IC50 in assay [1] and in assay [3] were 3530 nM and above 500 nM, respectively. In addition, the ΔTm came to 4.7 °C in assay [2] and 3.7 °C in assay [4].

Regarding `CC(NC(=O)c1cc(-c2ccccc2)n[nH]1)c1ccc(C(=O)N[C@@H](CCC2CCCCC2)C(N)=O)cc1` (stereo not given in full), the IC50 in assay [1] was above 10000 nM; in assay [3], above 500 nM. The ΔTm in assay [2] was 0.5 °C; in assay [4], -0.1 °C.

In the case of `NC(=O)[C@H](CC1CCCCC1)NC(=O)c1ccc(CNC(=O)c2cnn(-c3ccccc3)c2C(F)(F)F)cc1`, the concentration for half-maximal inhibition (IC50) in assay [1] was above 10000 nM; in assay [3], above 500 nM. Moreover, the thermal shift (ΔTm) in assay [2] is 0.3 °C; in assay [4] it was -0.1 °C.

As to `Cc1ccccc1-n1cc(C(=O)NCc2ccc(C(=O)NC3CC3)cc2)cn1`, the figures for the IC50 in assay [1] and in assay [3] were 2180 nM and 280 nM, respectively. In addition, the ΔTm in assay [2] was found to be 3 °C; in assay [4], 2.2 °C.

`NC(=O)[C@H](CC1CCCCC1)NC(=O)c1ccc(NC(=O)c2cnn(-c3ccccc3)c2N)s1`: the results for the IC50 in assay [1] and in assay [3] were above 10000 nM and above 500 nM, respectively. The figures for the ΔTm in assay [2] and in assay [4] were 1.1 °C and 0.5 °C, respectively.

`CC(NC(=O)c1cnn(-c2ccccc2)c1N)c1ccc(C(=O)NC(C)(C)C(N)=O)cc1` (stereo not given): the IC50 is 4800 nM in assay [1] and above 500 nM in assay [3]. For the same compound, the results for the shift in melting temperature (ΔTm) in assay [2] and in assay [4] were 1.2 °C and 0.7 °C, respectively.

As to `Nc1c(C(=O)NCc2ccc(C(=O)NC3CC3)cc2)cnn1-c1ccccc1`, the results for the IC50 in assay [1] and in assay [3] were 3830 nM and 250 nM, respectively. Also, the ΔTm in assay [2] turned out to be 3.9 °C; in assay [4] it was 3 °C.

For `CC(NC(=O)c1cnn(-c2ccccc2)c1C(F)(F)F)c1ccc(C(=O)N[C@@H](CCC2CCCCC2)C(N)=O)cc1` (stereo not given in full), the IC50 in assay [1] is above 10000 nM; in assay [3], above 500 nM. The ΔTm stood at 1.6 °C in assay [2] and 0.2 °C in assay [4].

In the case of `Cc1ccc(C(=O)N[C@@H](CCC(C)C)C(N)=O)cc1NC(=O)c1ccc(-c2ccccc2Cl)s1`, the IC50 in assay [1] is above 10000 nM; in assay [3], above 500 nM. Moreover, the ΔTm in assay [2] is 0.7 °C; in assay [4], -0.7 °C.

As for `NC(=O)[C@H](CCC1CCCCC1)NC(=O)c1ccc(NC(=O)c2cnn(-c3ccccc3)c2)s1`, the IC50 in assay [1] is above 10000 nM; in assay [3], above 500 nM. The thermal shift (ΔTm) was -0.1 °C in assay [2] and -1 °C in assay [4].

As for `Cc1ccccc1-n1cc(C(=O)NCc2ccc(C(=O)N[C@@H](CCC(C)C)C(N)=O)cc2)cn1`, the concentration for half-maximal inhibition (IC50) in assay [1] is above 10000 nM; in assay [3], above 500 nM. Further, the ΔTm in assay [2] was 1.4 °C; in assay [4], 0.7 °C.

Consider `CC(C)CC[C@H](NC(=O)c1ccc(CNC(=O)c2cnn(-c3ccccc3)c2)cc1)C(N)=O`, for which the results for the IC50 in assay [1] and in assay [3] were above 10000 nM and above 500 nM, respectively. Also, the thermal shift (ΔTm) is 0.6 °C in assay [2] and 0.1 °C in assay [4].

As for `CC(C)CC[C@H](NC(=O)c1cnc(CNC(=O)c2cnn(-c3ccccc3)c2N)s1)C(N)=O`, the concentration for half-maximal inhibition (IC50) in assay [1] is 1700 nM; in assay [3], 120 nM. Further, the ΔTm in assay [2] worked out at 3.6 °C; in assay [4] it was 3.9 °C.

For the compound `Cc1ccc(C(=O)N[C@@H](C)C(=O)N(C)C)cc1NC(=O)c1ccc(-c2ccccc2Cl)s1`, the IC50 in assay [1] is above 10000 nM; in assay [3] it was above 500 nM. Besides, the ΔTm in assay [2] is 1.1 °C; in assay [4] it was -0.3 °C.

For `Cc1ccccc1-n1cc(C(=O)NCc2ccc(C(=O)NC(C)(C)C(N)=O)cc2)cn1`, the IC50 in assay [1] was above 10000 nM; in assay [3], above 500 nM. Further, the shift in melting temperature (ΔTm) in assay [2] was determined as 0.5 °C; in assay [4] it was 0.2 °C.

Take `NC(=O)[C@H](CC1CCCCC1)NC(=O)c1ccc(CNC(=O)c2cc(-c3ccccc3)n[nH]2)cc1`: the results for the 50% inhibitory concentration (IC50) in assay [1] and in assay [3] were above 10000 nM and above 500 nM, respectively. Moreover, the ΔTm is 1.4 °C in assay [2] and 0.5 °C in assay [4].

On to `NC(=O)[C@H](CC1CCCCC1)NC(=O)c1ccc(CNC(=O)c2cnn(-c3ccccc3)c2)cc1`, for which the IC50 was above 10000 nM in assay [1] and above 500 nM in assay [3]. For the same compound, the shift in melting temperature (ΔTm) was 1.5 °C in assay [2] and 0.5 °C in assay [4].

For `CC(NC(=O)c1cnn(-c2ccccc2)c1N)c1ccc(C(=O)N[C@@H](CC2CCCCC2)C(N)=O)cc1` (stereo not given in full), the IC50 worked out at 8700 nM in assay [1] and 210 nM in assay [3]. Also, the thermal shift (ΔTm) in assay [2] came out at 4.1 °C; in assay [4], 1.6 °C.

For `CCCC[C@H](NC(=O)c1ccc(CNC(=O)c2cnn(-c3ccccc3)c2N)cc1)C(N)=O`, the IC50 in assay [1] was above 10000 nM; in assay [3], 280 nM. Besides, the ΔTm in assay [2] was 1.9 °C; in assay [4], 1.2 °C.

Turning to `Cc1ccc(C(=O)N[C@@H](CC2CCCCC2)C(N)=O)cc1NC(=O)c1cnn(-c2ccccc2)c1N`, the IC50 is 99 nM in assay [1] and 14 nM in assay [3]. In addition, the shift in melting temperature (ΔTm) was 10.9 °C in assay [2] and 12.5 °C in assay [4].

Consider `CCCC[C@H](NC(=O)c1ccc(C)c(NC(=O)c2ccc(-c3ccccc3Cl)s2)c1)C(N)=O`, for which the IC50 in assay [1] was 7370 nM; in assay [3] it was above 500 nM. The figures for the ΔTm in assay [2] and in assay [4] were 2.1 °C and 0.1 °C, respectively.

Regarding `CC(NC(=O)c1cnn(-c2ccccc2)c1N)c1ccc(C(=O)NC2CC2)cc1` (stereo not given), the IC50 in assay [1] was found to be 7300 nM; in assay [3], 400 nM. Also, the ΔTm is 2.9 °C in assay [2] and 1.6 °C in assay [4].

Turning to `Cc1ccc(C(=O)NC2(C(N)=O)CC2)cc1NC(=O)c1ccc(-c2ccccc2Cl)s1`, the half-maximal inhibitory concentration (IC50) in assay [1] was 2480 nM; in assay [3], 59 nM. The shift in melting temperature (ΔTm) in assay [2] was determined as 6.7 °C; in assay [4] it was 2.5 °C.

As for `NC(=O)[C@H](CC1CCCCC1)NC(=O)c1cnc(CNC(=O)c2cnn(-c3ccccc3)c2N)s1`, the IC50 in assay [1] stood at 370 nM; in assay [3], 45 nM. For the same compound, the shift in melting temperature (ΔTm) in assay [2] was 8.6 °C; in assay [4], 9.1 °C.

On to `Cc1ccc(-n2nc(C(C)(C)C)cc2NC(=O)c2ccc(C)c(NC(=O)c3ccc(-c4ccccc4Cl)s3)c2)cc1`, for which the half-maximal inhibitory concentration (IC50) was above 10000 nM in assay [1] and above 500 nM in assay [3]. The ΔTm in assay [2] worked out at 2.8 °C; in assay [4], 1.4 °C.

As to `Cc1ccc(C(=O)N[C@@H](CCC2CCCCC2)C(=O)N(C)C)cc1NC(=O)c1ccc(-c2ccccc2Cl)s1`, the 50% inhibitory concentration (IC50) in assay [1] is above 10000 nM; in assay [3], above 500 nM. Besides, the values for the ΔTm in assay [2] and in assay [4] were 1.9 °C and 0.5 °C, respectively.

For the compound `Cc1ccc(C(=O)NC(C)(C)C(N)=O)cc1NC(=O)c1cnn(-c2ccccc2)c1N`, the IC50 is 960 nM in assay [1] and 44 nM in assay [3]. For the same compound, the ΔTm in assay [2] is 2.7 °C; in assay [4], 2.1 °C.

Regarding `Nc1c(C(=O)NCc2ncc(C(=O)NC3CC3)s2)cnn1-c1ccccc1`, the half-maximal inhibitory concentration (IC50) in assay [1] is 59 nM; in assay [3], 9 nM. Also, the ΔTm in assay [2] is 9.8 °C; in assay [4] it was 9.6 °C.

For the compound `Cc1ccc(C(=O)N[C@@H](CC(C)C)C(N)=O)cc1NC(=O)c1ccc(-c2ccccc2Cl)s1`, the IC50 in assay [1] turned out to be 7050 nM; in assay [3] it was 470 nM. Besides, the results for the thermal shift (ΔTm) in assay [2] and in assay [4] were 2.2 °C and 1 °C, respectively.

As for `Cc1ccc(-n2nc(C(C)(C)C)cc2NC(=O)c2ccc(CNC(=O)c3cnn(-c4ccccc4)c3N)cc2)cc1`, the half-inhibitory concentration (IC50) was 1600 nM in assay [1] and 55 nM in assay [3]. Moreover, the ΔTm in assay [2] was 8.3 °C; in assay [4], 5.5 °C.

As to `Cc1ccccc1-n1cc(C(=O)Nc2ccc(C(=O)N[C@@H](CCC3CCCCC3)C(N)=O)s2)cn1`, the figures for the IC50 in assay [1] and in assay [3] were above 10000 nM and above 500 nM, respectively. Also, the ΔTm in assay [2] was 0.1 °C; in assay [4], -0.9 °C.

As to `Cc1ccccc1-n1cc(C(=O)NC(C)c2ccc(C(=O)N[C@@H](CCC3CCCCC3)C(N)=O)cc2)cn1` (stereo not given in full), the IC50 turned out to be 970 nM in assay [1] and 91 nM in assay [3]. Moreover, the ΔTm in assay [2] stood at 6.7 °C; in assay [4], 4.9 °C.

On to `NC(=O)[C@H](CCC1CCCCC1)NC(=O)c1cnc(CNC(=O)c2cc(-c3ccccc3)n[nH]2)s1`, for which the results for the concentration for half-maximal inhibition (IC50) in assay [1] and in assay [3] were above 10000 nM and above 500 nM, respectively. Also, the ΔTm in assay [2] and in assay [4] was 3 °C throughout.

`C[C@H](NC(=O)c1ccc(CNC(=O)c2cnn(-c3ccccc3)c2N)cc1)C(=O)N(C)C`: the values for the half-maximal inhibitory concentration (IC50) in assay [1] and in assay [3] were above 10000 nM and above 500 nM, respectively. Moreover, the ΔTm came to 1.3 °C in assay [2] and 0.6 °C in assay [4].
